Among the test systems are MCF7 breast; A549 NSCLC; UACC-257 melanoma; SR leukemia; IGROV1 ovarian; SK-MEL-5 melanoma; NCI-H226 lung; SF-539 CNS; HCT-15 colon; TK-10 renal.
Holding throughout (assay): NCI anticancer screen, dose series, 48 h

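48-hour exposure; five concentrations; linearly interpolated endpoints. At the GI50, growth is halved. TGI: concentration producing complete growth inhibition.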

In the case of `C=C1CCC[C@@H](C)C(O)[C@@H]2OC(=O)C(=C)[C@@H]2C[C@@H](OC(C)=O)[C@@]2(C)CC[C@@H]1O2` (some centres not stated), the TGI in the test with MCF7 breast was 11.6 µM; in the test on A549 NSCLC it was above 50 µM; in the test with UACC-257 melanoma, 15.2 µM; with SR leukemia, 9.91 µM; in the test with IGROV1 ovarian, 15.4 µM; with SK-MEL-5 melanoma, 13.7 µM. Further, the TGI with NCI-H226 lung was determined as 16 µM; in the test on SF-539 CNS it was 15.3 µM; in the test on HCT-15 colon, 10.6 µM; with TK-10 renal it was 14.8 µM.
On to `N#Cc1nc(CCc2nc(C#N)c(N)o2)oc1N`, for which the TGI in the test on MCF7 breast, in the test with A549 NSCLC, in the test with UACC-257 melanoma, in the test with SR leukemia, in the test with IGROV1 ovarian and with SK-MEL-5 melanoma was above 10 µM each time. For the same compound, the TGI in the test on NCI-H226 lung, in the test on SF-539 CNS, in the test on HCT-15 colon and in the test on TK-10 renal was above 10 µM each time.
As for `COc1ccc(CCNC(=O)Cc2ccccc2CO)cc1OC`, the TGI in the test with MCF7 breast, with A549 NSCLC, in the test with UACC-257 melanoma, in the test on SR leukemia, in the test on IGROV1 ovarian and in the test on SK-MEL-5 melanoma was above 100 µM in each case. The TGI with NCI-H226 lung, in the test with SF-539 CNS, in the test on HCT-15 colon and in the test on TK-10 renal was above 100 µM in each case.
On to `Oc1ccc(C(O)C2CCCCN2)cc1O` (configuration not stated), for which the TGI in the test with MCF7 breast, in the test with A549 NSCLC, in the test with UACC-257 melanoma, in the test with SR leukemia, in the test with IGROV1 ovarian and in the test with SK-MEL-5 melanoma was above 100 µM in each case. Besides, the TGI in the test on NCI-H226 lung, in the test with SF-539 CNS, in the test with HCT-15 colon and in the test with TK-10 renal was above 100 µM throughout.
As for `COC1CC(C)(NC(=O)C(F)(F)F)C2OC(c3ccccc3)OCC2O1` (configuration not stated), the TGI in the test on MCF7 breast, in the test with A549 NSCLC, in the test with UACC-257 melanoma, in the test with SR leukemia, in the test on IGROV1 ovarian and with SK-MEL-5 melanoma was above 100 µM throughout. The TGI in the test with NCI-H226 lung, in the test with SF-539 CNS, in the test with HCT-15 colon and in the test with TK-10 renal was above 100 µM each time.
With `CC(C)(CO[C@H]1C[C@H]2CC[C@@]1(C)C2(C)C)[N+](=O)[O-]`, the TGI in the test with MCF7 breast is 49.9 µM; with A549 NSCLC, above 100 µM; in the test on UACC-257 melanoma, 36.9 µM; with SR leukemia, 42.3 µM; in the test with IGROV1 ovarian, above 100 µM; in the test on SK-MEL-5 melanoma, 31.6 µM. In addition, the TGI with NCI-H226 lung turned out to be 36.1 µM; in the test with SF-539 CNS it was 32.1 µM; in the test with HCT-15 colon, 51.6 µM; in the test with TK-10 renal it was 34 µM.
Consider `O=C1NC(O)c2cc3ccccc3cc2O1` (configuration not stated), for which the TGI was above 100 µM with MCF7 breast; above 100 µM in the test with A549 NSCLC; above 100 µM in the test with UACC-257 melanoma; 71.3 µM with SR leukemia; above 100 µM in the test with IGROV1 ovarian; above 100 µM with SK-MEL-5 melanoma. Also, the TGI in the test on NCI-H226 lung is above 100 µM; in the test with SF-539 CNS, 89.9 µM; in the test with HCT-15 colon it was above 100 µM; with TK-10 renal, above 100 µM.
`C=C(NC(=O)C(=C)NC(=O)c1ccc2c(n1)-c1coc(n1)C(=C)NC(=O)C(=C)NC(=O)c1nc(oc1C)C(=C)NC(=O)C(C(C)(C)O)NC(=O)C(=C)NC(=O)c1coc(n1)/C(=C/C)NC(=O)[C@H]([C@@H](C)O)NC(=O)c1csc-2n1)C(N)=O` (some centres not stated): the TGI with MCF7 breast, with A549 NSCLC, with UACC-257 melanoma, with SR leukemia, in the test with IGROV1 ovarian and in the test with SK-MEL-5 melanoma was above 87.5 µM each time. Moreover, the TGI with NCI-H226 lung, in the test with SF-539 CNS, with HCT-15 colon and in the test with TK-10 renal was above 87.5 µM throughout.
Consider `CCOC(=O)NC(=S)N(CC(=O)c1cc(OC)c(OC)c(OC)c1)c1ccc(Cl)cc1`, for which the GI50 with MCF7 breast was above 100 µM; in the test on A549 NSCLC it was 59.6 µM; in the test with UACC-257 melanoma, 25.1 µM; with SR leukemia, 38.1 µM; in the test with IGROV1 ovarian it was 70.1 µM; in the test with SK-MEL-5 melanoma, 43 µM. Also, the GI50 in the test with NCI-H226 lung is above 100 µM; in the test on SF-539 CNS, above 100 µM; in the test with HCT-15 colon it was 62.6 µM; in the test on TK-10 renal, 36.9 µM. Moreover, the TGI in the test on MCF7 breast, with A549 NSCLC, in the test with UACC-257 melanoma, in the test with SR leukemia, in the test with IGROV1 ovarian and with SK-MEL-5 melanoma was above 100 µM throughout. The TGI in the test with NCI-H226 lung, in the test with SF-539 CNS, in the test with HCT-15 colon and with TK-10 renal was above 100 µM each time.
In the case of `O=C(O)C(Cc1ccccc1)NCc1c(O)ccc2c(-c3ccccc3)cc(=O)oc12` (configuration not stated), the TGI with MCF7 breast, in the test on A549 NSCLC, with UACC-257 melanoma, in the test on SR leukemia, with IGROV1 ovarian and in the test on SK-MEL-5 melanoma was above 100 µM in each case. Further, the TGI in the test on NCI-H226 lung, with SF-539 CNS, with HCT-15 colon and in the test with TK-10 renal was above 100 µM each time.
`C=C(C)C1CC(=O)C(C)=C(O)C1` (configuration not stated): the TGI in the test with MCF7 breast, with A549 NSCLC, in the test with UACC-257 melanoma, in the test on SR leukemia, in the test with IGROV1 ovarian and with SK-MEL-5 melanoma was above 100 µM throughout. Also, the TGI with NCI-H226 lung, in the test with SF-539 CNS, in the test with HCT-15 colon and in the test with TK-10 renal was above 100 µM in each case.
As for `C/C(=N\Nc1nc2ccccc2s1)c1ccncn1`, the TGI in the test on MCF7 breast was above 100 µM; in the test on A549 NSCLC, above 35 µM; with UACC-257 melanoma it was above 100 µM; in the test on SR leukemia it was above 100 µM; in the test with IGROV1 ovarian it was 4.39 µM; in the test with SK-MEL-5 melanoma, 7.08 µM. The figures for the TGI in the test on NCI-H226 lung, in the test with SF-539 CNS and with HCT-15 colon were 1.07 µM, 35.9 µM and 15.9 µM, respectively.
As to `O=C(CNc1ccccc1C(=O)O)Nn1cnc2ccc(S(=O)(=O)Nc3ccccc3C(=O)O)cc2c1=O`, the TGI in the test on MCF7 breast, with A549 NSCLC, with UACC-257 melanoma, with SR leukemia, with IGROV1 ovarian and with NCI-H226 lung was above 100 µM in each case. Moreover, the TGI in the test with SF-539 CNS, in the test on HCT-15 colon and in the test with TK-10 renal was above 100 µM throughout.
As for `O=C1c2ccccc2-c2nc3ccncc3n21`, the TGI with MCF7 breast, in the test on A549 NSCLC, in the test with UACC-257 melanoma, with SR leukemia, with IGROV1 ovarian and in the test with NCI-H226 lung was above 100 µM each time. Also, the TGI with SF-539 CNS, in the test on HCT-15 colon and in the test on TK-10 renal was above 100 µM throughout.
With `Cc1cn(CCCCCCOC(=O)NC(CCCNC(N)=O)C(=O)O)c(=O)[nH]c1=O` (configuration not stated), the TGI with MCF7 breast, with A549 NSCLC, with UACC-257 melanoma, in the test on SR leukemia, with IGROV1 ovarian and in the test with NCI-H226 lung was above 100 µM each time. The TGI with SF-539 CNS, in the test with HCT-15 colon and in the test with TK-10 renal was above 100 µM throughout.
In the case of `COc1ccc(-c2ccc(C(=O)C=P(c3ccccc3)(c3ccccc3)c3ccccc3)cc2)cc1`, the TGI was found to be 30.2 µM in the test on MCF7 breast; 25.9 µM in the test on A549 NSCLC; 45.2 µM in the test with UACC-257 melanoma; 73.6 µM in the test on SR leukemia; 22.4 µM with SK-MEL-5 melanoma; 27.7 µM with NCI-H226 lung. For the same compound, the figures for the TGI in the test with SF-539 CNS, with HCT-15 colon and in the test with TK-10 renal were 35.9 µM, 29.6 µM and 47.1 µM, respectively.
With `N[C@@H](CCC(=O)NC(Cc1ccccc1)C(=O)NCP(=O)(O)O)C(=O)O` (some centres not stated), the TGI with MCF7 breast, in the test on A549 NSCLC, in the test with UACC-257 melanoma, in the test with SR leukemia, in the test on IGROV1 ovarian and in the test on SK-MEL-5 melanoma was above 100 µM each time. Moreover, the TGI with SF-539 CNS, in the test with HCT-15 colon and in the test on TK-10 renal was above 100 µM throughout.
For `O=P1(N(CCCl)CCCl)Oc2ccc(Cl)cc2C(C(Cl)(Cl)Cl)c2cc(Cl)ccc2O1` (configuration not stated), the TGI in the test on MCF7 breast was 73.9 µM; in the test with A549 NSCLC, above 100 µM; in the test on UACC-257 melanoma it was above 100 µM; with SR leukemia it was 30.6 µM; in the test on SK-MEL-5 melanoma, 24 µM; in the test with NCI-H226 lung, 50.9 µM. For the same compound, the TGI with SF-539 CNS was determined as 29.9 µM; in the test with HCT-15 colon, 23.5 µM; in the test with TK-10 renal, 89.5 µM.
Turning to `Nc1c(C(=O)c2ccc(Cl)c(Cl)c2)[nH]c(NCc2ccccc2)c1C(=S)Nc1ccccc1`, the TGI was 12.3 µM in the test on MCF7 breast; 23.3 µM in the test on A549 NSCLC; 30.5 µM with UACC-257 melanoma; above 100 µM in the test with SR leukemia; 26.5 µM in the test with IGROV1 ovarian; 31.4 µM with NCI-H226 lung. Further, the TGI in the test on SF-539 CNS is 6.47 µM; in the test on HCT-15 colon it was 6.27 µM; in the test with TK-10 renal, 33.4 µM.
